# Results reported in patent publication US9050264B2, “Cellulose capsules and methods for making them” (University of Iowa Research Foundation, priority 2009, dated 2015).
# Structures can show the parent of a compound that is named as a salt.
# Assays:
# Format in all cases: physicochemical
# [1] = Release of KCl from cellulose capsules in unstirred aqueous urea solutions (potassium ion selective electrode); conditions: cellulose capsule (shell 0.07-0.10 mm), KCl 500 mg, unstirred 200 mL, 37 C
# Description: Cellulose capsule shells (shell thickness 0.07-0.10 mm), prepared according to Example 2, were filled with KCl (500 mg) and subjected to the release study in the unstirred dissolution medium (200 mL) containing 0.0, 1.5, 3.0, 5.5, or 8.0 M urea at 37±0.5° C. using a Hansen Research USP II basket apparatus (Hansen Research Corp., Chatsworth, Calif.). The amount of KCl released was analyzed using a potassium ion selective electrode connected to a pH meter (Orion model 420, Fisher Scientific, Inc., Pittsburgh, Pa.).
# [2] = Dissolution study of acetaminophen release from cellulose capsules in water (USP II basket, HPLC); conditions: for release rate: acetaminophen 50 mg + lactose 150 mg, water 900 mL, 37 C, 100 r.p.m.
# Description: Cellulose capsule shells of three different shell thicknesses (0.05, 0.06 and 0.07 mm) were prepared from the methylolcellulose solution (cellulose content 4.4%, w/w) according to Example 2. They were filled with a homogeneously mixed powder blend of acetaminophen (50 mg) and lactose (150 mg). The dissolution study was performed in water (900 mL) at 37±0.5° C. and 100±2 r.p.m. using a Hansen Research USP II basket apparatus (Hansen Research Corp., Chatsworth, Calif.). The amount of drug released was determined by high performance liquid chromatography (HPLC) using an absolute calibration method and a fully automated Shimadzu LC-6A high performance liquid chromatograph, equipped with a C18 analytical column (Supelco—Sigma Aldrich, Bellefonte, Pa.). The drug was eluted with a 1:3 methanol:water mixture at a flow rate of 0.5 mL/min and detected at a wavelength of 243 nm. The release of acetaminophen increased linearly with time (see FIG. 4A).
# Cellulose capsule shells (shell thickness 0.07-0.10 mm) prepared according to Example 2 were filled with 50, 100 and 200 mg of acetaminophen. The release studies were carried out in purified water (900 mL) at 37±0.5° C. and 100±2 r.p.m. The amount of acetaminophen released over time was determined by HPLC using conditions described above.
# Cellulose capsule shells (shell thickness 0.07-0.10 mm), prepared according to Example 2, were filled with a homogeneously mixed powder blend of acetaminophen (100 mg) and 15, 50, 100, 150, or 200 mg of polyethylene glycol (PEG) 8000 (corresponding to the percent weight ratio of 87:13, 67:33, 50:50, 40:60, or 33:67, respectively, for the total powder fill in the capsule). The release studies were performed in purified water (900 mL) at 37±0.5° C. and 100±2 r.p.m. using the Hansen Research USP II basket apparatus (Hansen Research Corp., Chatsworth, Calif.). The amount of acetaminophen released was determined by HPLC as described above. […] Above 60% w/w PEG 8000 in the formulation, there was no change in the release rate compared to the rate at 50% PEG in the mixture.
# Cellulose capsule shells (shell thickness 0.07-0.1 mm) prepared according to Example 2 were filled with acetaminophen (100 mg) and 50, 100 and 200 mg potassium chloride (KCl) (corresponding to the weight ratio of 33:67, 50:50 or 67:33, respectively, for the total powder fill in the capsule). The amounts of acetaminophen released at different times were determined by HPLC, following the procedure described above.
# [3] = Dissolution study of cellulose:Eudragit S100 capsule shells in pH 3.0 and pH 7.4 buffers (USP II basket, HPLC); conditions: Cellulose:Eudragit (90:10%, w/w) capsule shell ~0.08 mm, acetaminophen 50 mg + anhydrous lactose 150 mg
# Description: Cellulose:Eudragit (90:10%, w/w) capsule shells (shell thickness˜0.08 mm) prepared according to Example 2 were filled with a homogeneously mixed powder blend of acetaminophen (50 mg) and anhydrous lactose (150 mg) and subjected to dissolution study first in pH 3.0 phthalate buffer (900 mL) for 3 h at 37±0.5° C. and 100±2 r.p.m followed by in pH 7.4 phosphate buffer (900 mL) for 5 h at 37±0.5° C. and 100±2 r.p.m. using a Hansen Research USP II basket apparatus (Hansen Research Corp., Chatsworth, Calif.). The amount of drug released was determined by HPLC according to the method described above. […] The higher steady-state release rate observed for acetaminophen at pH 7.4 is attributed to the dissolution of Eudragit, causing the capsule shell to become more porous.
# Cellulose, cellulose-Eudragit (90:10) and cellulose:Eudragit (90:10%, w/w) capsule shells (shell thickness˜0.08 mm) were prepared according to Example 2. The dissolution test was carried out in pH 7.4 phosphate buffer (900 mL) for 5 h at 37±0.5° C. and 100±2 r.p.m. using a Hansen Research USP II basket apparatus (Hansen Research Corp., Chatsworth, Calif.). The amount of drug released was determined by HPLC according to the method described above. FIG. 12 compares the release results from the three capsule systems. The steady-state release rates calculated were 1.8, 3.1 and 4.6 mg/h, respectively.
# [4] = Release of diphenhydramine hydrochloride from cellulose capsules in water (USP II basket, HPLC); conditions: cellulose capsule, water 900 mL
# Description: Cellulose capsule shells (shell thickness 0.07-1.0 mm), prepared according to Example 2, were filled with diphenhydramine hydrochloride and lactose (400 mg) mixed in different weight-by-weight ratios (50:50, 25:75, 12.5:87.5, 6.25:93.75 or 3.75:96.25 weight ratios of diphenhydramine hydrochloride and lactose, respectively). The release study was performed in water (900 mL) at 37±0.5° C. and 100±2 r.p.m. using a Hansen Research USP II basket apparatus (Hansen Research Corp., Chatsworth, Calif.). The amount of drug released was determined by HPLC using a fully automated Shimadzu LC-10A high performance liquid chromatograph, equipped with a C18 analytical column (Supelco). The drug was eluted with a 1:4 (v/v) mixture of methanol:water (containing 1% triethylamine and 2% glacial acetic acid) at a flow rate of 0.2 mL/min and detected at a wavelength of 256 nm. […] The steady state release rates mentioned above depended linearly with the calculated osmotic pressure developed inside the capsule shell.
structure (smiles),measurement,setting,value
"[Cl-].[K+] [KCl, potassium chloride]",steady state release rate,[1]; 0.0 M urea,142.8 mg/h
same,steady state release rate,[1]; 1.5 M urea,115.8 mg/h
same,steady state release rate,[1]; 3.0 M urea,100.2 mg/h
same,steady state release rate,[1]; 5.5 M urea,73.8 mg/h
same,steady state release rate,[1]; 8.0 M urea,46.2 mg/h
CC(=O)Nc1ccc(O)cc1 [acetaminophen],steady-state release rate,"[2]; cellulose capsule (shell 0.07-0.10 mm) filled with 50 mg acetaminophen, purified water",3.05 mg/h
same,steady-state release rate,"[2]; cellulose capsule (shell 0.07-0.10 mm) filled with 100 mg acetaminophen, purified water",3.43 mg/h
same,steady-state release rate,"[2]; cellulose capsule (shell 0.07-0.10 mm) filled with 200 mg acetaminophen, purified water",3.15 mg/h
same,steady-state release rate,"[2]; cellulose capsule (shell 0.07-0.10 mm), 33:67 (% w/w) acetaminophen:PEG 8000 (100 mg + 200 mg), purified water",7.38 mg/h
same,steady-state release rate,"[2]; cellulose capsule (shell 0.07-0.1 mm), 33:67 acetaminophen:KCl mixture",9.94 mg/h
same,steady-state release rate,"[2]; cellulose capsule (shell 0.07-0.10 mm), 40:60 (% w/w) acetaminophen:PEG 8000 (100 mg + 150 mg), purified water",7.17 mg/h
same,steady-state release rate,"[2]; cellulose capsule (shell 0.07-0.10 mm), 50:50 (% w/w) acetaminophen:PEG 8000 (100 mg + 100 mg), purified water",6.95 mg/h
same,steady-state release rate,"[2]; cellulose capsule (shell 0.07-0.1 mm), 50:50 acetaminophen:KCl mixture",10.14 mg/h
same,steady-state release rate,"[2]; cellulose capsule (shell 0.07-0.10 mm), 67:33 (% w/w) acetaminophen:PEG 8000 (100 mg + 50 mg), purified water",6.62 mg/h
same,steady-state release rate,"[2]; cellulose capsule (shell 0.07-0.1 mm), 67:33 acetaminophen:KCl mixture",11.41 mg/h
same,steady-state release rate,"[2]; cellulose capsule (shell 0.07-0.10 mm), 87:13 (% w/w) acetaminophen:PEG 8000 (100 mg + 15 mg), purified water",5.92 mg/h
same,release rate,[2]; cellulose capsule shell thickness 0.05 mm,5.25 mg/h
same,release rate,[2]; cellulose capsule shell thickness 0.06 mm,4.30 mg/h
same,release rate,[2]; cellulose capsule shell thickness 0.07 mm,3.06 mg/h
same,steady-state release rate,"[3]; pH 3.0 phthalate buffer, 3 h",2.68 mg/h
same,steady-state release rate,"[3]; pH 7.4 phosphate buffer, 5 h",4.76 mg/h
CN(C)CCOC(c1ccccc1)c1ccccc1 [diphenhydramine hydrochloride],steady-state release rate,[4]; 3.75:96.25 diphenhydramine hydrochloride:lactose core powder mixture (400 mg),3.92 mg/h
same,steady-state release rate,[4]; 6.25:93.75 diphenhydramine hydrochloride:lactose core powder mixture (400 mg),7.58 mg/h
same,steady-state release rate,[4]; 12.5:87.5 diphenhydramine hydrochloride:lactose core powder mixture (400 mg),12.70 mg/h
same,steady-state release rate,[4]; 25:75 diphenhydramine hydrochloride:lactose core powder mixture (400 mg),34.17 mg/h
same,steady-state release rate,[4]; 50:50 diphenhydramine hydrochloride:lactose core powder mixture (400 mg),67.96 mg/h
